Test results published in patent US7638540B2, “Benzofuran compound and medicinal composition containing the same” (The New Industry Research Organization, priority 2003, dated 2009).

How the values were obtained:
[1] = tested on: LTB4 receptor; assay: TXB2 release from guinea pig eosinophils stimulated with LTB4 (LTB4 receptor antagonist activity); format: cell-based; conditions: 10^−3 M test compound (37.5 μl) added to 300 μl cell suspension, then 10^−7 M LTB4 (37.5 μl), 37° C. 15 min, positive control 100, negative control 0, N.D. = TXB2 concentration at measurement limit or less
Method: The LTB4 receptor antagonist activity of the test compound was examined using, as an index, thromboxane B2 (TXB2) released when stimulating eosinophil of guinea pig with LTB4.
Based on the method described in Japanese Journal of Pharmacology, vol. 70, p. 337-345 (1996) etc., eosinophils of guinea pig were prepared. A cell suspension (300 μl, 1.25×10^6 cells/ml) was placed in a 5 ml polypropylene test tube and, after incubation at 37° C. for 5 min., 10^−3 M test compound (37.5 μl) dissolved in 0.1% DMSO aqueous solution was added and the cells were continuously cultured for 5 min. Then, 10^−7 M LTB4 (37.5 μl) was added to induce the reaction and the cells were incubated at 37° C. for 15 min. The reaction was quenched in ice water, and the culture was centrifuged at 4° C., 3000 rpm for 10 min. The obtained supernatant was prepared as a sample for TXB2 measurement, and preserved at −80° C. before use for the measurement. The quantitation of TXB2 was performed using a TXB2 enzyme immunoassay kit (manufactured by Cayman Chemical Company). The release ratio (%) of TXB2 from the eosinophils was determined by the following formula: release ratio (%) of TXB2=[(average value of test compound administration group−average value of negative control group)/(average value of positive control group−average value of negative control group)]×100
As used herein, the positive control group means a group to which stimulation with LTB4 was applied but the same volume of a medium was given instead of the test compound, and the negative control group means a group to which stimulation with LTB4 was not applied, the same volume of a medium was given instead of LTB4, and the same volume of a medium was given instead of the test compound. When the release ratio of TXB2 is smaller than 0, it means that the measured TXB2 concentration was lower than that of the negative control group. When the TXB2 concentration in the sample was the measurement limit or less, N.D. is indicated.

Row | Structure (SMILES) | melting point [°C] | Amount of TXB2 release (%) [1] [%]
1 | CC(=O)c1oc2ccc(/C(C)=C/C(=O)N3CCN(c4ccccc4)CC3)cc2c1N [Example 18, (E)-3-(2-acetyl-3-aminobenzofuran-5-yl)-1-(4-phenylpiperazin-1-yl)-2-buten-1-one] |  | 53.91
2 | C/C=C/C(=O)Nc1c(C#N)oc2ccc(Br)cc12 [Example 117, (E)-N-(5-bromo-2-cyanobenzofuran-3-yl)-2-butenamide] | 206.5 to 208.2 | 54.95
3 | CCOC(=O)CCCOc1ccc(Br)c2cc(/C(C)=C/C(=O)N(CC)CC)oc12 [Example 35] |  | 1.02
4 | CC(=CC(=O)N1CCOCC1)c1cc2cccc(OC(c3ccccc3)c3ccccc3)c2o1 (stereo in doubt) [Example 42, (E)-3-(7-benzhydryloxybenzofuran-2-yl)-1-morpholino-2-buten-1-one] |  | 13.83
5 | CCN(CC)C(=O)/C=C(\C)c1cc2c(Br)ccc(OCCCC(=O)O)c2o1 [Example 36, (E)-4-[4-bromo-2-(2-diethylcarbamoyl-1-methylvinyl)benzofuran-7-yloxy]butyric acid] | 125.5 to 127 | −0.301
6 | CCN(CC)C(=O)/C=C(\C)c1ccc(OCCCC(=O)O)c2oc(/C(C)=C/C(=O)O)cc12 [Example 2, (E)-3-[7-(3-carboxypropoxy)-4-(2-diethylcarbamoyl-1-methylvinyl)benzofuran-2-yl]-2-butenoic acid] | 199.5 to 201.9 | 5.77
7 | CCNS(=O)(=O)c1ccc(OCCCC(=O)OCC)c2oc(/C(C)=C\C(=O)N(CC)CC)cc12 [Example 48, Ethyl (Z)-4-[2-(2-diethylcarbamoyl-1-methylvinyl)-4-ethylsulfamoylbenzofuran-7-yloxy]butyrate] |  | 53.91
8 | COc1ccc(CCNC(=O)/C=C(\C)c2ccc(OC(C)c3ccccc3)c3oc(C(C)=O)cc23)cc1OC (stereo not drawn) [Example 8, (E)-3-[2-acetyl-7-(l-phenylethoxy)benzofuran-4-yl]-N-[2-(3,4-dimethoxyphenyl)ethyl]-2-butenamide] |  | 41.73
9 | CCN(CC)C(=O)/C=C(\C)c1cc2cccc(OC(c3ccccc3)c3ccccc3)c2o1 [Example 37, (E)-3-(7-benzhydryloxybenzofuran-2-yl)-N,N-diethyl-2-butenamide] |  | 15.69
10 | CCN(CC)C(=O)/C=C(/C)c1cc2cccc(OC(C)C)c2o1 [Example 34, (Z)-3-(7-isopropoxybenzofuran-2-yl)-N,N-diethyl-2-butenamide] |  | −0.063
11 | COc1ccc(CCNC(=O)/C=C(\C)c2ccc3oc(C(C)=O)c(NC(=O)c4cnoc4C)c3c2)cc1OC [Example 72, (E)-N-(2-acetyl-5-(2-[2-(3,4-dimethoxyphenyl)ethylcarbamoyl]-1-methylvinyl)benzofuran-3-yl)-5-methylisoxazole-4-carboxamide] |  | 84.46
12 | CCOC(=O)CCCOc1ccc(/C(C)=C/C(=O)N(CC)CC)c2cc(C(C)=O)oc12 [Example 14, Ethyl (E)-4-[2-acetyl-4-(2-diethylcarbamoyl-1-methylvinyl)benzofuran-7-yloxy]butyrate] |  | 44.81
13 | COc1cccc2cc(/C(Cl)=C/C=C/C(=O)N3CCOCC3)oc12 [Example 138, (2E,4Z)-5-chloro-5-(7-methoxybenzofuran-2-yl)-1-morpholin-4-ylpenta-2,4-dien-1-one] | 185.4 to 186.6 | 
14 | Cc1oncc1C(=O)Nc1c(C#N)oc2ccc(Br)cc12 [Example 85, N-(5-bromo-2-cyanobenzofuran-3-yl)-5-methylisoxazole-4-carboxamide] | 239.2 to 241.9 | 

Second part, led by results:

Row | melting point [°C] | Structure (SMILES) | Amount of TXB2 release (%) [1] [%]
15 | 143.2 to 145.6 | C/C=C/C(=O)Nc1c(C(=O)OCC)oc2ccccc12 [Example 118, Ethyl (E)-3-methyl-acryloylaminobenzofurane-2-carboxylate] | 73.84
16 | 161.3 to 162.1 | COc1ccc(CCNC(=O)/C=C/C=C(\Cl)c2cc3cc(Br)ccc3o2)cc1OC [Example 55, (2E,4Z)-5-(5-bromobenzofuran-2-yl)-5-chloropenta-2,4-dienoic acid [2-(3,4-dimethoxyphenyl)ethyl]amide] | 53.91
17 | 167.2 to 168.2 | COc1cccc(NC(=O)/C=C(\C)c2cc3cccc(OC(c4ccccc4)c4ccccc4)c3o2)c1 [Example 38, (E)-3-(7-benzhydryloxybenzofuran-2-yl)-N-(3-methoxyphenyl)-2-butenamide] | 91.73
18 | 151.4 to 153.3 | COc1ccc(CCNC(=O)/C=C/C=C(\Cl)c2cc3cccc(OC)c3o2)cc1OC [Example 56, (2E,4Z)-5-chloro-5-(7-methoxybenzofuran-2-yl)-penta-2,4-dienoic acid [2-(3,4-dimethoxyphenyl)ethyl]amide] | 52.39
19 | 70.8 to 73 | CCN(CC)C(=O)/C=C(\C)c1ccc(OC(C)c2ccccc2)c2oc(C(C)=O)cc12 (centres unmarked) [Example 1, (E)-3-[2-acetyl-7-(1-phenylethoxy)benzofuran-4-yl]-N,N-diethyl-2-butenamide] | 0.42
20 | 219.6 to 220.3 | Cc1oncc1C(=O)Nc1c(C(=O)/C=C/c2ccccc2)oc2ccc(Br)cc12 [Example 173, (E)-5-methylisoxazole-4-carboxylic acid [5-bromo-2-(3-phenylacryloyl)benzofuran-3-yl]amide] | 
21 | 174.2 to 176.5 | COc1ccc(/C=C/C(=O)c2oc3ccc(Br)cc3c2NC(=O)CNCc2ccccc2)cc1 [Example 196, (E)-2-benzylamino-N-{5-bromo-2-[3-(4-methoxyphenyl)acryloyl]benzofuran-3-yl}acetamide] | 
22 | 269.3 to 271.2 | C/C(O)=C(\C#N)C(=O)Nc1c(C(=O)c2ccc(C#N)cc2)oc2ccc(Br)cc12 [Example 100, (Z)-N-[5-bromo-2-(4-cyanobenzoyl)benzofuran-3-yl]-2-cyano-3-hydroxy-2-butenamide] | 
23 | 182.5 to 184.7 | COc1ccc(/C=C/C(=O)Nc2c(C(C)=O)oc3ccc(Br)cc23)cc1 [Example 178, (E)-N-(2-acetyl-5-bromobenzofuran-3-yl)-3-(4-methoxyphenyl)acrylamide] | 
24 | 220.4 to 223.5 | CC(=O)c1cc2cc(/C(C)=C/C(=O)O)ccc2o1 [Example 134, (E)-3-(2-acetylbenzofuran-5-yl)-2-butenoic acid] | 
25 | 105.8 to 106.5 | COc1ccc2oc(-c3csc(C)n3)c(-c3ccc(Cl)cc3)c2c1 [Example 217, 4-[3-(4-chlorophenyl)-5-methoxybenzofuran-2-yl]-2-methylthiazole] | 
26 | 67 to 69.5 | CCOC(=O)CCCOc1cccc2cc(/C(Cl)=C/C=O)oc12 [Example 140, Ethyl 4-[2-(1-chloro-3-oxopropenyl)benzofuran-7-yloxy]-butyrate] | 
27 | 165.5 to 166 | Clc1ccc(-c2c(-c3csc(-c4ccccc4)n3)oc3c(Cl)cccc23)cc1 [Example 213, 4-[7-chloro-3-(4-chlorophenyl)benzofuran-2-yl]-2-phenylthiazole] | 
28 | 168.9 to 170 | COc1ccc(NC(=O)/C=C(\C)c2oc3c(Cl)cccc3c2-c2ccc(Cl)cc2)cc1 [Example 143, (E)-3-[7-chloro-3-(4-chlorophenyl)benzofuran-2-yl]-2-butenoic acid (4-methoxyphenyl)-amide] | 
29 | 129 to 131 | CC(=O)c1oc2ccc(Br)cc2c1NC(=O)/C=C/CCc1ccccc1 [Example 175, (E)-5-phenyl-2-penteneoic acid (2-acetyl-5-bromobenzofuran-3-yl)amide] | 
30 | 236.3 to 238.9 | Cc1oncc1C(=O)Nc1c(C(=O)c2ccc(C#N)cc2)oc2ccc(Br)cc12 [Example 73, N-[5-bromo-2-(4-cyanobenzoyl)benzofuran-3-yl]-5-methylisoxazole-4-carboxamide] | 
31 | 250.7 to 252.6 | Cc1oncc1C(=O)Nc1c(C(N)=O)oc2ccccc12 [Example 79, N-(2-carbamoylbenzofuran-3-yl)-5-methylisoxazole-4-carboxamide] | 
32 | 195.5 to 197 | COc1ccc(C(=O)Nc2c(Cl)oc3ccc(Br)cc23)cc1 [Example 200, N-(5-bromo-2-chlorobenzofuran-3-yl)-4-methoxybenzamide] | 
33 | 162.6 to 165.5 | COc1ccc(CCNC(=O)/C=C(\C)c2ccc3oc(C(=O)c4ccc(C#N)cc4)c(NC(=O)c4cnoc4C)c3c2)cc1OC [Example 90, (E)-N-(2-(4-cyanobenzoyl)-5-{2-[2-(3,4-dimethoxyphenyl)ethylcarbamoyl]-1-methylvinyl}benzofuran-3-yl)-5-methylisoxazole-4-carboxamide] | 
